In patent publication US8119588B2, “Hard surface cleaner compositions of sulfonated estolides and other derivatives of fatty acids and uses thereof” (Stepan Company, priority 2009, dated 2012):

Key:
[1] = Surface activity by Kruss K12 tensiometer; assay type: physicochemical; settings: 25° C. in deionized water
Method: The surface activity was measured using a Kruss K12 tensiometer at 25° C. in deionized water. The critical micelle concentration (CMC) and the surface tension at CMC are important properties for a surfactant. CMC indicates the minimum concentration of a surfactant that forms aggregates. […] The surface tension indicates how efficient a surfactant can reduce the surface energy of water. Lower surface tension is favorable for wetting and cleansing.

[2] = Coupling ability (hydrotrope requirement) with nonionic surfactants of different HLB; assay type: physicochemical
Method: Sodium xylene sulfonate (SXS) is often used as a hydrotrope to clarify cloudy formulations. […] In Table 2, the measurement of the amount of hydrotrope or surfactant needed to clear the solution was determined.
The compositions described in Table 2 are made in accordance with the following steps: • Add the water and trisodium citrate and mix until the solution is clear. Add BIO-SOFT® N25-9 slowly until the solution is homogeneous. Add BIO-SOFT® N25-3 and mix until the solution is homogeneous. If the final solution is cloudy, then continue adding the hydrotrope or surfactant and agitate until solution is clear.

Row | CMC [1] [mg/L] | Surface Tension @CMC [1] [mN/m] | Compound | Final appearance ([2]; after adding hydrotrope or surfactant to cloudy nonionic blend) | hydrotrope requirement (actives) ([2]; amount needed to clear blend of 5% Bio-soft N25-9, 5% Bio-Soft N25-3, 1% trisodium citrate) [% actives]
1 | 184.8 | 26.3 | CCCCCCCCCCCCOS(=O)(=O)[O-].[Na+] [STEPANOL WA-EXTRA, Sodium Lauryl Sulfate] |  | 
2 | 171 | 25 | Sodium Laureth Sulfate, 2EO [STEOL CS-230] |  | 
3 | 75 | 30 | Sodium Laureth Sulfate, 3EO [STEOL CS-330] |  | 
4 |  |  | Sodium xylene sulfonate [SXS] | clear | 5.3
